Results taken from patent US5705693A, “Cationic lipids” (Gilead Sciences, Inc., priority 1995, dated 1998).
Like-named read-outs stand apart in the source and are kept apart here.

Tests used:
A10 cells = assay: Transfection of A10 cells with ODN1 (Example 6); type: cell-based, rat; settings: 18 h, 10% FBS; for cells transfected A10: 15 μg/mL lipid, 1:1 DOPE, 250 pmole ODN1; for toxicity to A10 cells / transfection of A10 in the presence of serum: in words
Excerpt: (§1) Preparation of lipid-nucleic acid complexes and cell transfection.
Cells at about 50-100% confluency were used.

SK-OV-3 cells = assay: Transfection of SK-OV-3 cells with ODN1 in 40% or 80% FBS (Example 7); type: cell-based, human; settings: for % SK-OV-3 transfected: 18 h, 500 pmole ODN1, 1:1 DOPE
Excerpt: as §1
80% serum approximates the serum protein and ion conditions that exist in vivo in mammalian circulation. 30 is thus suitable for transfecting cells under physiological conditions.

HL60 cells = assay: Transfection of HL60 cells with 30/ODN1 (Example 8); type: cell-based, human; settings: for % HL60 transfected: 500 pmole ODN1
Excerpt: as §1
(§2) The toxicity noted for HL60 cells may have been at least partly due to the high level of ODN1 that was delivered to the cells.

L7 cells = assay: Transfection of L7 cells with ODN1 (Example 11); type: cell-based, murine; settings: for % L7 transfected: 20% FBS, 18 h, 250 pmole ODN1
Excerpt: as §1

NHEK cells = assay: Transfection of NHEK cells with ODN1 (Example 10); type: cell-based, human; settings: for % NHEK transfected: DMEM, 24 h
Excerpt: as §1

ECl cells = assay: Transfection of ECl cells with ODN1 (Example 10); type: cell-based, human; settings: for % ECl transfected: DMEM
Excerpt: as §1

cells [1] = assay: Amount of fluorescently labeled oligonucleotide delivered versus commercially available lipids; type: cell-based; settings: observed fluorescence intensity, estimated
Excerpt: The difference in transfection efficiency between lipids described herein and commercially available lipids is usually most pronounced when the transfections are done in the presence of medium containing serum. The amount of polyanion delivered into cells was estimated to be about 2- to 100-fold greater for lipids 30, 34 and 35 based on the observed fluorescence intensity of transfected cells after transfection using a fluorescently labeled oligonucleotide. The cationic lipids described herein also transfect some cell types that are not detectably transfected by commercial lipids, particularly where the transfection is conducted in the presence of serum.

cells [2] = assay: Transfection with filtered preparations; type: cell-based; settings: 1:1 DOPE, sonicated
Description: The invention cationic lipids 30 or 34 and DOPE colipid (1:1) were prepared by sonication and then filtered using 200, 100 or 50 nm filters to obtain particles less than about 200 nm in diameter, less than about 100 nm and less than about 50 nm. […] The 50 nm filtered preparations were about 40-50% as efficient as the preparations containing larger particles. The size of the particles or miscelles in a given preparation will vary depending on the preparation method. Sonicating cationic lipid-colipid mixtures will provide smaller miscelles and vortexing will provide larger miscelles (Felgner J. Biol. Chem. (1994) 269:2550-2561). Such miscelles are believed to transfer the polyanion into the cytoplasm of a eukaryotic or prokaryotic cell by pinocytosis, endocytosis and/or by direct fusion with the plasma membrane.

HUVEC cells = assay: Transfection of HUVEC cells with ODN1 (Example 9); type: cell-based, human; settings: for % HUVEC transfected: 10% serum, 5 h, 500 pmole ODN1
Excerpt: as §1

CV-1 cells [3] = assay: Transfection of CV-1 cells with ODN1 and toxicity (Example 6); settings: 18 h, 10% FBS; for cells transfected CV-1: 15 μg/mL lipid, 1:1 DOPE, 250 pmole ODN1
Description: (§4) Preparation of lipid-nucleic acid complexes and cell transfection. Lipids were prepared for complexing with nucleic acids by drying a cationic lipid-colipid mixture in CHCl3 under argon. The molar ratio of cationic lipid to colipid was adjusted by adding appropriate amounts of each lipid in CHCl3 together prior to drying. Usually 10 mL of water was added to a 100 mL round bottom flask containing a dried film of lipid and colipid. The lipids consisted of a mixture of an invention cationic lipid and the colipid DOPE (dioleylphosphatidylethanolamine). Sterile-filtered water or a low ionic strength aqueous buffer such as physiological saline, TE (10 mM tris, 1 mM EDTA, pH 7-8) or Ringer's solution was then added to the dried lipids to obtain a lipid suspension at 1 mg lipid/mL followed by a 10 minute bath sonication (Ultra Sonik 100, NEY) at room temperature to suspend the lipids in the flask. The suspended lipids (10 mL) were then sonicated 5 times for 15 seconds per sonication at 0°-4° C. with about 30-60 seconds between pulses. Sonication was usually conducted in a 15 mL polypropylene culture tube. A probe sonicator (Sonifier 250, Branson Ultrasonics) was used at maximum power for the ice bath sonication and for each 15 second pulse. The lipid suspension was optionally filtered or centrifuged (2000 rpm, 10 minutes at 0-4° C.) to remove large particulate matter and the resulting lipid suspensions were kept at 4° C. until used.
(§5) Lipid nucleic acid complexes were prepared by mixing (a) 10% v/v (usually 100 μL) oligonucleotide in Optimem™ (Bethesda Research Labs, Inc.) at room temperature (about 19°-24° C.) with (b) 10% v/v lipid suspension in Optimem™ at room temperature and allowing the mixture to stand for about 15 minutes, followed by adding (c) 80% v/v Optimem™ without serum or 80% v/v tissue culture medium (Modified Essential Medium (MEM), Dulbecco's Modified Eagle's Medium (DMEM), etc. containing 0-80% fetal bovine serum (Hyclone, Inc.). The lipid and nucleic acid solutions could also be prepared using DMEM without serum, a low ionic strength (less than about 200 mM total ion concentration) aqueous medium lacking phosphate (TE, etc) or water in place of Optimem™. Typically, 100 μL each of Optimem™ containing oligonucleotide (100-500 pmole) and Optimem™ containing added lipid was mixed with 800 μL of serum free Optimem™ or with 800 μL of tissue culture medium containing 10-80% FBS. Generally, 5 or 10 μL (5 or 10 μg) of lipid was added to 95 or 90 μL of Optimem™ to give a final 1 mL transfection preparation containing 5 or 10 μg of lipid and 250 pmole of oligonucleotide. The lipid-nucleic acid mixture was held at room temperature for about 15 min hours before adding medium to give the final transfection preparation volume (usually 1 mL) and warming to 37° C. and immediately applying onto the cells. The transfection mixture was left on the cells for 2 to 24 hours (at 37° C.), with a 6 hour time period commonly used.
(§6) Cells were typically transfected using 1 mL of transfection mixture per well in a 6-well plate. Cells at about 50-100% confluency were used. […] Typical transfections with the invention lipids used cells at about 60-100% confluency.

CV-1 cells [4] = assay: Transfection of CV-1 cells with 30/ODN1 (Example 8); type: cell-based, African green monkey; settings: for % CV-1 transfected: 18 h, 500 pmole ODN1
Excerpt: as §1, §2

CV-1 cells [5] = system: CV-1 cells
Description: as §4, §5, §6

CV-1 cells [6] = assay: Transfection of CV-1 cells with ODN1 and toxicity (Example 22); type: cell-based, African green monkey; settings: 2:1 DOPE, 6 h, 10% FBS, 250 pmole ODN1
Description: (§3) Lipids 35, 52, 54 and 55 were each prepared using a 2:1 lipid:DOPE molar ratio as follows. Two molar equivalents of each lipid in CHCl3 and one equivalent of DOPE in CHCl3 was dried under reduced pressure by rotovap at room temperature. Deionized water was then added to give 1 mg/mL of total lipid. 10 mL of water containing 10 mg of lipid was vortexed for 5 minutes in a 100 mL round bottom flask. 2 mL aliquots were then used to prepare lipid suspensions for complexing with ODN1. Each preparation was obtained by 6 cycles of freezing on dry ice and thawing in a 37° C. water bath.

cdc-2 kinase = assay: cdc-2 antisense oligonucleotide analog transfection, Western blot (Example 22); type: cell-based, African green monkey; settings: 30 nM cdc-2 antisense oligonucleotide analog, 2.5 and 5.0 μg lipid
Excerpt: The oligonucleotide contained 5-(1-propynyl)cytosine in place of cytosine and 5-(1-propynyl)uracil in place of uracil. A control oligonucleotide analog having a mismatched base sequence was also used to check for any non-specific effect on cdc-2 kinase levels in the transfected cells caused by the oligonucleotide analog. A control containing only lipid was also used as a control. […] Protein levels were examined by Western blot analysis.

[7] = Transfection of CV-1 cells with ODN1 and toxicity (Example 22); type: cell-based, African green monkey; settings: monkey, cv-1 cells; 10.0 μg lipid
Description: as §3

[8] = fluorescence observation, in words

CCCCCCCCCCCCCCCCCCN(CCCCCCCCCCCCCCCCCC)C(=O)CNC(=O)[C@@H](N)CCCN.Cl.Cl [Compound 30]
cells transfected A10 (A10 cells): 95
toxicity to A10 cells (A10 cells): little or no toxicity
transfection of A10 in the presence of serum (A10 cells): efficiently transfected
% SK-OV-3 transfected (SK-OV-3 cells; 40% serum): 76%
% SK-OV-3 transfected (SK-OV-3 cells; 80% serum): 72%
transfection of SK-OV-3 in the presence of serum (SK-OV-3 cells; in words): efficiently transfected
% HL60 transfected (HL60 cells; 20 μg/mL, 0% serum, 5 h): 77%
% HL60 transfected (HL60 cells; 20 μg/mL, 10% serum, 5 h): 76%
toxicity HL60 (HL60 cells; 20 μg/mL, 10% serum, 5 h, footnote): significant toxicity noted
transfection of HL60 (HL60 cells; in words): efficiently transfected
% L7 transfected (L7 cells; 2.5 μg/mL lipid): 10%
% L7 transfected (L7 cells; 5 μg/mL lipid): 30%
% L7 transfected (L7 cells; 10 μg/mL lipid): 60%
toxicity L7 (L7 cells; in words): little or no toxicity
transfection of L7 (L7 cells; in words): efficiently transfected
% NHEK transfected (NHEK cells; 1 μg/mL lipid, second series): 25%
% NHEK transfected (NHEK cells; 2.5 μg/mL lipid, second series): 50%
% NHEK transfected (NHEK cells; 5 μg/mL lipid, first series): 80-90%
% NHEK transfected (NHEK cells; 5 μg/mL lipid, second series): 60-70%
% NHEK transfected (NHEK cells; 10 μg/mL lipid, first series): 70%
% NHEK transfected (NHEK cells; 10 μg/mL lipid, second series): 60-70%
% NHEK transfected (NHEK cells; 20 μg/mL lipid, first series): 60%
level of ODN1 delivered into NHEK cells (NHEK cells; [8]): high levels
toxicity NHEK (NHEK cells; in words): little to moderate toxicity
transfection of NHEK (NHEK cells; in words): efficiently transfected
% ECl transfected (ECl cells; 2.5 μg/mL lipid, 5 hour transfection): 10%
% ECl transfected (ECl cells; 5 μg/mL lipid, 5 hour transfection): 25-30%
% ECl transfected (ECl cells; 5 μg/mL lipid, 6 hour transfection): 30%
% ECl transfected (ECl cells; 10 μg/mL lipid, 5 hour transfection): 51%
% ECl transfected (ECl cells; 10 μg/mL lipid, 6 hour transfection): 43%
% ECl transfected (ECl cells; 15 μg/mL lipid, 5 hour transfection): 70%
% ECl transfected (ECl cells; 20 μg/mL lipid, 6 hour transfection): 20%
level of ODN1 delivered into ECl cells (ECl cells; [8]): high levels
toxicity ECl (ECl cells; in words): little to moderate toxicity
transfection of ECl (ECl cells; in words): efficiently transfected
amount of polyanion delivered into cells relative to commercially available lipids (cells [1]): 2- to 100 fold
transfection efficiency of 50 nm filtered preparations relative to larger particles (cells [2]; 50 nm filter): 40-50%
transfection efficiency of 200 nm or 100 nm filtered preparations (cells [2]; in words): the most efficient (and equally efficient)
% HUVEC transfected (HUVEC cells; 5 μg/mL lipid): 1%
% HUVEC transfected (HUVEC cells; 10 μg/mL lipid): 5%
transfection of HUVEC (HUVEC cells; in words): modest efficiency
cells transfected CV-1 (CV-1 cells [3]): 85
transfection of CV-1 in the presence of serum (CV-1 cells [3]; in words): efficiently transfected
% CV-1 transfected (CV-1 cells [4]; 2.5 μg/mL, 10% serum): 90%
% CV-1 transfected (CV-1 cells [4]; 5 μg/mL, 10% serum): > 95%
% CV-1 transfected (CV-1 cells [4]; 10 μg/mL, 10% serum): > 95%
% CV-1 transfected (CV-1 cells [4]; 15 μg/mL, 10% serum): > 95%
% CV-1 transfected (CV-1 cells [4]; 20 μg/mL, 50% serum): 95%
% CV-1 transfected (CV-1 cells [4]; 20 μg/mL, 80% serum): 90%
transfection of CV-1 at reduced levels of lipid (CV-1 cells [4]; in words): efficiently transfected
toxicity to CV-1 cells (CV-1 cells [5]): little or no toxicity

CCCCCCCCCCCCCCCCCCN(CCCCCCCCCCCCCCCCCC)C(=O)CCC(=O)NCCCN1CCN(CCCN)CC1 [Compound 38]
cells transfected A10 (A10 cells): 85
toxicity to A10 cells (A10 cells): little or no toxicity
transfection of A10 in the presence of serum (A10 cells): efficiently transfected
% SK-OV-3 transfected (SK-OV-3 cells; 40% serum): < 10%
% SK-OV-3 transfected (SK-OV-3 cells; 80% serum): 0%
cells transfected CV-1 (CV-1 cells [3]): 70
toxicity to CV-1 cells (CV-1 cells [3]; in words): little or no toxicity
transfection of CV-1 in the presence of serum (CV-1 cells [3]; in words): efficiently transfected

CCCCCCCCCCCCNC(=O)CCC(=O)NCCCN1CCN(CCCN)CC1 [Compound 44]
cells transfected A10 (A10 cells): < 10
cells transfected CV-1 (CV-1 cells [3]): < 5

CCCCCCCCCCCCCCN(CCCCCCCCCCCCCC)C(=O)CNC(=O)C(N)CCCNC(=N)NC(C)=O.Cl.Cl (centres unmarked) [Compound 52]
% cells transfected (CV-1 cells [6]; 1 μg lipid): 30-40%
% cells transfected (CV-1 cells [6]; 2.5 μg lipid): 60%
% cells transfected (CV-1 cells [6]; 5.0 μg lipid): 60%
% cells transfected (CV-1 cells [6]; 10.0 μg lipid): 60%

CCCCCCCCCCCCCCN(CCCCCCCCCCCCCC)C(=O)CNC(=O)C(N)CCCNC(=N)NC(=O)OC(C)C.Cl.Cl (centres unmarked) [Compound 53]
cdc-2 protein levels (cdc-2 kinase): efficiently reduced cdc-2 protein levels
% cells transfected (CV-1 cells [6]; 1 μg lipid): 30%
% cells transfected (CV-1 cells [6]; 2.5 μg lipid): 70%
% cells transfected (CV-1 cells [6]; 5.0 μg lipid): 100%
% cells transfected (CV-1 cells [6]; 10.0 μg lipid): 60%

CCCCCCCCCCCCCCN(CCCCCCCCCCCCCC)C(=O)CNC(=O)C(N)CCCNC(=N)NC(=O)C(C)(C)C.Cl.Cl (centres unmarked) [Compound 54]
% cells transfected (CV-1 cells [6]; 1 μg lipid): 10-20%
% cells transfected (CV-1 cells [6]; 2.5 μg lipid): 30-40%
% cells transfected (CV-1 cells [6]; 5.0 μg lipid): 70-80%
% cells transfected (CV-1 cells [6]; 10.0 μg lipid): 40%

CCCCCCCCCCCCCCN(CCCCCCCCCCCCCC)C(=O)CNC(=O)[C@@H](N)CCCNC(=N)N [Compound 55]
cdc-2 protein levels (cdc-2 kinase): efficiently reduced cdc-2 protein levels
% cells transfected (CV-1 cells [6]; 1 μg lipid): 40%
% cells transfected (CV-1 cells [6]; 2.5 μg lipid): 75%
% cells transfected (CV-1 cells [6]; 5.0 μg lipid): 100%
% cells transfected (CV-1 cells [6]; 10.0 μg lipid): 40%
cytotoxicity at 6 h [7]: > 40%
